Measurements published in patent US10597387B2, “Methods to treat lymphoplasmacytic lymphoma” (Dana-Farber Cancer Institute, Inc., priority 2013, dated 2020).
pEC50, pIC50: −log10 of the molar value.

Experiments:
BTK = BTK (Homo sapiens (Human), UniProt Q06187); assay: Invitrogen Select Screening kinase assay; format: biochemical; details: in vitro
From the text: The in vitro activity of the compounds described herein in inhibiting TAK1, HCK, and other kinases were obtained using an Invitrogen Select Screening assay as known in the art. The IC50 values determined from this assay are shown below.

RPCIWM-1 = assay: CellTiter-Glo cell viability assay; format: cell-based; details: 72 hours
Experimental: (§1) CellTiter-Glo® Luminescent cell viability assay (Promega) was used to assess cell survival following treatment with the compounds described. Cells were seeded into 384 well plates with the EL406 Combination Washer Dispenser (BioTek Instruments, Inc.), and the compounds were injected into the cells culture media with the JANUS Automated Workstation (PerkinElmer Inc.). Cells were treated with a series diluted inhibitors (20˜0.04 μM) for 72 hours at 37° C. Luminescent measurement is performed using the 2104 Envision® Multilabel Reader (PerkinElmer Inc.).

OCI-Ly19 = assay: CellTiter-Glo cell viability assay; format: cell-based; details: Homo sapiens, 72 hours
Experimental: as §1

Ramos = assay: CellTiter-Glo cell viability assay; format: cell-based; details: 72 hours
Experimental: as §1

BCWM.1 = assay: CellTiter-Glo cell viability assay; format: cell-based
Experimental: as §1

OCI-Ly3 = assay: CellTiter-Glo cell viability assay; format: cell-based
Experimental: as §1

MWCL-1 = assay: CellTiter-Glo cell viability assay; format: cell-based
Experimental: as §1

HCK = HCK (Homo sapiens (Human), UniProt P08631); assay: Invitrogen Select Screening kinase assay; format: biochemical; details: in vitro, read-out: HCK IC50 (nM) Inv
Sequence of HCK (P08631 whole entry): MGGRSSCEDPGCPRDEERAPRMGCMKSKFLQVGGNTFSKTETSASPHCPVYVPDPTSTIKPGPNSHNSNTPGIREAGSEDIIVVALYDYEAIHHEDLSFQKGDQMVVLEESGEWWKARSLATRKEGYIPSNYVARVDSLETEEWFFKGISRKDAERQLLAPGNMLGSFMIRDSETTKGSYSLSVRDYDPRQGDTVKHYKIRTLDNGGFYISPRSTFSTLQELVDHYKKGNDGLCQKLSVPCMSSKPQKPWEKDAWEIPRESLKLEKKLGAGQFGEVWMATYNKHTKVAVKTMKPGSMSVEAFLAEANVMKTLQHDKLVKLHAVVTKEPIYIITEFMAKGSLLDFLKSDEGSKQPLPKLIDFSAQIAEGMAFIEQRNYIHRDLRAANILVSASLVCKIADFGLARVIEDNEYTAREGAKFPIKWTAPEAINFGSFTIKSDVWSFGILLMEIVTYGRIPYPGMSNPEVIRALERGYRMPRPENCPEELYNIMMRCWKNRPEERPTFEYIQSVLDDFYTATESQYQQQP

Sequence of BTK (Q06187 whole entry): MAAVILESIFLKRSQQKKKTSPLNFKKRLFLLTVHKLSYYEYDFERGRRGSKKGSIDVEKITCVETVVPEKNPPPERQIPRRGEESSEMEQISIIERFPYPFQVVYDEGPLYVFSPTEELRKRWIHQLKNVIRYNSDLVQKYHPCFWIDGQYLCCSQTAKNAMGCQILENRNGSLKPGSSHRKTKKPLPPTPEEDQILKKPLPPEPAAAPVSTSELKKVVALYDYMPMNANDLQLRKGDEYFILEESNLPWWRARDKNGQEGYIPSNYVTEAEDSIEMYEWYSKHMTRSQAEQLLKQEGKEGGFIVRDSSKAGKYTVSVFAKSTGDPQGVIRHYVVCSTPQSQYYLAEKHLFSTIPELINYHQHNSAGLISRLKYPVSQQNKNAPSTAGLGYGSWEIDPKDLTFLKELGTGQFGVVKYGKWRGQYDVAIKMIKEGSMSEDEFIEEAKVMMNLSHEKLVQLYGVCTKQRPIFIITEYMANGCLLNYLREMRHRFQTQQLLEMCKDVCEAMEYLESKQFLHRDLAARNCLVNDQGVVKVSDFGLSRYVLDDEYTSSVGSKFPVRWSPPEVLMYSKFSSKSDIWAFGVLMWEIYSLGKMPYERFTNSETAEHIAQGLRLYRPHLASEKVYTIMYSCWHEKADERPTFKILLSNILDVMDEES

| Compound | pIC50 (BTK) | pEC50 (RPCIWM-1) | pEC50 (OCI-Ly19) | pEC50 (Ramos; Homo sapiens, Ramos) | pEC50 (BCWM.1; BCWM1, 72 h) | pEC50 (OCI-Ly3; Homo sapiens, OCI-Ly3, 72 h) | pEC50 (MWCL-1; 72 h) | pEC50 (Ramos) | pEC50 (BCWM.1; 72 hours) | pEC50 (OCI-Ly3; 72 hours) | pEC50 (MWCL-1; 72 hours) | IC50 (HCK) |
| --- | --- | --- | --- | --- | --- | --- | --- | --- | --- | --- | --- | --- |
| Cc1cn(-c2cc(NC(=O)c3ccc(C)c(NC(=O)c4cncc(-c5cccs5)c4)c3)cc(C(F)(F)F)c2)cn1 [I-3, N-(2-methyl-5-((3-(4-methyl-1H-imidazol-1-yl)-5-(trifluoromethyl)phenyl)carbamoyl)phenyl)-5-(thiophen-2-yl)nicotinamide] | 6.71 | 6.14 | 6.29 | 6.26 | 6.85 | 6.39 | 6.45 | – | – | – | – | – |
| N-(2-chloro-5-((4-((4- ethylpiperazin-1-yl)methyl)- 3-(trifluoromethyl)phenyl) carbamoyl)phenyl)-5- (thiophen-2-yl)nicotinamide [I-2] | – | 6.96 | – | – | – | – | – | 7.22 | 7.92 | 6.79 | 7.80 | – |
| Cc1ccc(C(=O)Nc2cc(N3CCN(C)CC3)cc(C(F)(F)F)c2)cc1NC(=O)c1cncc(-c2cccs2)c1 [I-4, N-(2-methyl-5-((3-(4-methylpiperazin-1-yl)-5-(trifluoromethyl)phenyl)carbamoyl)phenyl)-5-(thiophen-2-yl)nicotinamide] | 6.34 | – | – | – | – | – | – | – | – | – | – | – |
| CCN1CCN(Cc2ccc(C(=O)Nc3ccc(C)c(NC(=O)c4cncc(-c5cccs5)c4)c3)cc2C(F)(F)F)CC1 [I-1, N-(5-(4-((4-ethylpiperazin-1-yl)methyl)-3-(trifluoromethyl)benzamido)-2-methylphenyl)-5-(thiophen-2-yl)nicotinamide] | 7.64 | – | 6.26 | 5.38 | 7.42 | 5.54 | 6.34 | – | – | – | – | – |
| CCN1CCN(c2ccc(NC(=O)c3ccc(C)c(NC(=O)c4cncc(-c5cccs5)c4)c3)cc2C(F)(F)F)CC1 [I-5, N-(5-((4-(4-ethylpiperazin-1-yl)-3-(trifluoromethyl)phenyl)carbamoyl)-2-methylphenyl)-5-(thiophen-2-yl)nicotinamide] | 5.41 | 10.70 | 5.81 | 6.00 | 6.44 | 5.67 | 5.96 | – | – | – | – | – |
| CCN1CCN(Cc2ccc(NC(=O)c3ccc(C)c(NC(=O)c4cncc(-c5cnn(C)c5)c4)c3)cc2C(F)(F)F)CC1 [I-9] | 7.60 | – | – | – | – | – | – | – | – | – | – | 2.43 nM |
| Cc1ccc(C(=O)Nc2cc(N3CCOCC3)cc(N3CCOCC3)c2)cc1NC(=O)c1cncc(-c2cccs2)c1 [I-7, N-(5-((3,5-dimorpholinophenyl)carbamoyl)-2-methylphenyl)-5-(thiophen-2-yl)nicotinamide] | 5.47 | 5.32 | 5.53 | 5.62 | 6.74 | 5.45 | 5.75 | – | – | – | – | – |
| CCN1CCN(Cc2ccc(NC(=O)c3ccc(C)c(NC(=O)c4cncc(-c5cnoc5)c4)c3)cc2C(F)(F)F)CC1 [I-8] | 7.16 | – | – | – | – | – | – | – | – | – | – | 5.33 nM |
